According to patent publication US10856562B2, “Flavor composition and edible compositions containing same” (MARS, INCORPORATED, priority 2013, dated 2020):
Square brackets hold non-standard residues; d marks the D form. Ends that are not written are not given here. pGlu = O=C1CC[C@@H](C(=O)O)N1

Tested on: panelists
Assay: Attribute perception scores of flavor enhancers in solution (Example 6)
Type: in vivo, human
Parameters: key to Metallic / Numbing / Atringent / Salt / Sweet / Sour / Bitter / Umami / Sour, mean evaluation score in solution / Numbing, mean evaluation score in solution / Astringent / Umami FF: 15-point intensity scale, 0 = none, 15 = very strong
Conditions: for Mineral/Flinty aromatic in solution as the concentration increases / Salt perception level in solution as the concentration increases / Umami aromatic in solution as the concentration increases / Umami feeling factor in solution as the concentration increases: 1.0 to 100 ppb; for Astringent / Bitter / Flinty/Mineral / Metallic / Numbing / Salt / Sour / Sweet / Umami / Umami FF / Atringent / Mineral/Flinty / Umami/brothy: solution
Experimental: Descriptive attributes (e.g., taste, flavor and chemical feeling factors) of three use levels of pGlu-Cys (FE-35), pGlu-Cys-Gly (FE-36), pGlu-Cys-Cys (FE-37), pGlu-Cys-Val (FE-38) and pGlu-Val-Cys (UE-30) flavor composition peptides were determined. The three use levels were as follows: 1.0 ppb, 10.0 ppb and 100.0 ppb.
Data was collected for the attributes of the product in-mouth for the use levels according to the following protocol: • The samples were analyzed for flavor by six to nine members of a panel, trained and experienced in flavor evaluation using the Spectrum™ method. Samples were evaluated across multiple panel sessions. • The strength of each attribute was rated on a 15-point scale, where 0=none and 15=very strong. • This scale incorporates the ability to use tenths of a point and therefore has the potential of 150 scale differentiations. • The scale may be expanded beyond 15 points to include extreme ratings if necessary.
A summary of the concentrations of NaCl, water and flavor composition peptides in the solution samples is described in table 24.
The panelists evaluated each sample for the attributes described by table 25.

[1] = 10.0 ppb, mean evaluation score
[2] = 100.0 ppb, mean evaluation score
[3] = Concentration 1, MAX, 15-point scale
[4] = Concentration 1, MEAN, 15-point scale
[5] = Concentration 1, MIN, 15-point scale
[6] = Concentration 10, MAX, 15-point scale
[7] = Concentration 10, MEAN, 15-point scale
[8] = Concentration 10, MIN, 15-point scale
[9] = Concentration 100, MAX, 15-point scale
[10] = Concentration 100, MEAN, 15-point scale
[11] = Concentration 100, MIN, 15-point scale

[pGlu]-Cys [FE-35]
decreases slightly: Umami aromatic in solution as the concentration increases
2.2: Salt [8]
3.0: Salt [6]
0.8: Umami [1] | Umami/brothy [7]
0.5: Bitter [3] | Mineral/Flinty [5]
0.1: Bitter (1.0 ppb, mean evaluation score) | Bitter [4]
2.5: Salt [9]
1.8: Salt (1.0 ppb, mean evaluation score) | Salt [4]
0.3: Sweet (1.0 ppb, mean evaluation score) | Metallic [1] | Sweet [1] | Metallic [2] | Sweet [4] | Metallic [7] | Sweet [7] | Metallic [10]
show no distinct pattern: Mineral/Flinty aromatic in solution as the concentration increases | Salt perception level in solution as the concentration increases
1.2: Mineral/Flinty [6]
0.7: Flinty/Mineral [2] | Mineral/Flinty [10]
2.0: Salt [2] | Salt [3] | Umami [3] | Umami/brothy [3] | Metallic [6] | Umami [6] | Umami/brothy [6] | Salt [10]
0.0: Astringent (1.0 ppb, mean evaluation score) | Metallic (1.0 ppb, mean evaluation score) | Numbing (1.0 ppb, mean evaluation score) | Sour (1.0 ppb, mean evaluation score) | Astringent [1] | Bitter [1] | Numbing [1] | Sour [1] | Astringent [2] | Bitter [2] | Numbing [2] | Sour [2] | Atringent [3] | Metallic [3] | Numbing [3] | Sour [3] | Atringent [4] | Metallic [4] | Numbing [4] | Sour [4] | Atringent [5] | Bitter [5] | Metallic [5] | Numbing [5] | Sour [5] | Sweet [5] | Atringent [6] | Bitter [6] | Numbing [6] | Sour [6] | Atringent [7] | Bitter [7] | Numbing [7] | Sour [7] | Atringent [8] | Bitter [8] | Metallic [8] | Mineral/Flinty [8] | Numbing [8] | Sour [8] | Sweet [8] | Umami [8] | Umami/brothy [8] | Atringent [9] | Bitter [9] | Numbing [9] | Sour [9] | Atringent [10] | Bitter [10] | Numbing [10] | Sour [10] | Atringent [11] | Bitter [11] | Metallic [11] | Mineral/Flinty [11] | Numbing [11] | Sour [11] | Sweet [11] | Umami [11] | Umami/brothy [11]
2.6: Salt [1] | Salt [7]
1.1: Umami FF [1] | Umami FF [2] | Umami [7] | Umami [10]
1.0: Mineral/Flinty [3] | Sweet [3] | Umami [5] | Umami/brothy [5] | Sweet [6] | Metallic [9] | Sweet [9] | Umami/brothy [9]
0.2: Sweet [2] | Umami [2] | Sweet [10] | Umami/brothy [10]
shows no distinct pattern: Umami feeling factor in solution as the concentration increases
0.9: Flinty/Mineral (1.0 ppb, mean evaluation score) | Flinty/Mineral [1] | Mineral/Flinty [4] | Mineral/Flinty [7]
1.5: Umami (1.0 ppb, mean evaluation score) | Umami FF (1.0 ppb, mean evaluation score) | Umami [4] | Umami/brothy [4] | Salt [5] | Mineral/Flinty [9] | Umami [9] | Salt [11]

[pGlu]-Cys-Cys (cysteine pairing not given here) [FE-37]
3.5: Salt [6]
increase very slightly: Mineral/Flinty aromatic in solution as the concentration increases | Umami aromatic in solution as the concentration increases | Umami feeling factor in solution as the concentration increases (listed as FE 37)
1.6: Umami FF [2] | Umami [10]
4.5: Salt [9]
1.0: Mineral/Flinty [6] | Umami/brothy [6] | Sweet [9] | Umami/brothy [9]
0.1: Umami (1.0 ppb, mean evaluation score) | Sweet [1] | Metallic [2] | Umami/brothy [4] | Sweet [7] | Metallic [10]
1.3: Umami FF (1.0 ppb, mean evaluation score) | Umami FF [1] | Umami [4] | Umami [7]
00: Bitter [3]
0.2: Umami [1] | Sweet [2] | Umami/brothy [7] | Sweet [10]
increases very slightly by 100 ppb: Umami feeling factor in solution as the concentration increases
1.5: Mineral/Flinty [3] | Mineral/Flinty [9] | Salt [11]
0.5: Umami [2] | Umami/brothy [10]
0.8: Flinty/Mineral [1] | Umami/brothy [3] | Sweet [6] | Mineral/Flinty [7] | Metallic [9]
0.9: Flinty/Mineral [2] | Mineral/Flinty [10]
2.4: Salt (1.0 ppb, mean evaluation score) | Salt [4]
0.7: Flinty/Mineral (1.0 ppb, mean evaluation score) | Mineral/Flinty [4]
2.0: Umami [3] | Salt [5]
2.8: Salt [2] | Salt [3] | Salt [10]
0.0: Astringent (1.0 ppb, mean evaluation score) | Bitter (1.0 ppb, mean evaluation score) | Metallic (1.0 ppb, mean evaluation score) | Numbing (1.0 ppb, mean evaluation score) | Sour (1.0 ppb, mean evaluation score) | Sweet (1.0 ppb, mean evaluation score) | Astringent [1] | Bitter [1] | Metallic [1] | Numbing [1] | Sour [1] | Astringent [2] | Bitter [2] | Numbing [2] | Sour [2] | Atringent [3] | Metallic [3] | Numbing [3] | Sour [3] | Sweet [3] | Atringent [4] | Bitter [4] | Metallic [4] | Numbing [4] | Sour [4] | Sweet [4] | Atringent [5] | Bitter [5] | Metallic [5] | Mineral/Flinty [5] | Numbing [5] | Sour [5] | Sweet [5] | Umami [5] | Umami/brothy [5] | Atringent [6] | Bitter [6] | Metallic [6] | Numbing [6] | Sour [6] | Atringent [7] | Bitter [7] | Metallic [7] | Numbing [7] | Sour [7] | Atringent [8] | Bitter [8] | Metallic [8] | Mineral/Flinty [8] | Numbing [8] | Sour [8] | Sweet [8] | Umami [8] | Umami/brothy [8] | Atringent [9] | Bitter [9] | Numbing [9] | Sour [9] | Atringent [10] | Bitter [10] | Numbing [10] | Sour [10] | Atringent [11] | Bitter [11] | Metallic [11] | Mineral/Flinty [11] | Numbing [11] | Sour [11] | Sweet [11] | Umami [11] | Umami/brothy [11]
shows no distinct pattern: Salt perception level in solution as the concentration increases
2.5: Umami [6] | Salt [8]
3.0: Salt [1] | Salt [7] | Umami [9]
